Source: patent US8945566B2, “Methods for improving the bioactivity of therapeutic IgE antibodies for the treatment of disease” (Quest PharmaTech, Inc., priority 2008, dated 2015)

What was measured:
[1] = tested on: transgenic mice expressing the human FcεRIα; assay: passive cutaneous anaphylaxis with tumor microspheroids; type: in vivo; conditions: agent administered to the mouse
Procedure: Passive cutaneous anaphylaxis is performed in transgenic mice expressing the human FcεRIα. Transgenic mice are shaved and injected intradermally in different regions of the dorsal side with […] of 6 mg/ml histamine base (HollisterStier, Spokane, Wash.), 1 μg anti-PSA IgE, CT26-PSA or CT26-Neo microspheroid alone, 2 μg of crosslinker anti-human kappa antibody alone, 1 μg anti-PSA IgE plus CT26-PSA or CT26-Neo microspheroid, or 1 μg anti-PSA IgE crosslinked with 2 μg of an anti-human kappa antibody. After 15 min, 1% Evans Blue in […] saline is injected i.v. Mice are sacrificed 20 min later, and local cutaneous anaphylaxis is assessed visually by the blue leakage in the area surrounding the injection. […] This effect is not prevented by administration of cortisol to the mouse; however pre-administration of an H1 blocking agent inhibits the size of the response.

[2] = tested on: SKBR3 human breast cancer cells; assay: histamine release and tumor cell killing with effector cells (PBMC or RBL-Sx-38); type: cell-based; conditions: poly IC 1 to 25 μg/ml added 30 minutes to 4 hours post co-incubation
Procedure: Tumor cells are incubated with increasing concentrations of Her-2 specific IgG or IgE and combined with the effector cells. Evidence of local effector cell activation is measured by assessing histamine and or beta hexosimimidase release into the culture supernatant. Confirmatory experiments showing specificity for the Her-2 Ag can be conducted using anti-NP IgE and NP-HSA or anti-PSA IgE and PSA or conjugated PSA. In addition to immediate hypersensitivity, the target cells can be pre-labeled with Calcein AM and the ability of the anti-Her2 IgE or IgG to induce tumor killing can be monitored via direct effect of the PBMC or the RBL-Sx-38 cells in inducing release of the Calcein AM label.
Having established the baseline activity of a representative Ag specific IgE monoclonal in terms of both histamine release and basic tumor cell killing, the effect of corticosteroid and specific adjuvant on the model can be measured. […] The ability of TLR3 stimulation to augment the ADCC effect is addressed by adding low concentrations (1 to 25 μg/ml) of poly IC (Sigma) to the system at various time points.

C[C@]12CCC(=O)C=C1CC[C@@H]1[C@@H]2[C@@H](O)C[C@@]2(C)[C@H]1CC[C@]2(O)C(=O)CO [cortisol]
effect of co-medication on IgE-induced wheal and flare reaction [1]: not prevented

poly IC
cell killing (ADCC effect) [2]: enhances the amount of killing observed
